Data as given in patent US7914776B2, “Solid dispersions of opioid antagonists” (Adolor Corporation, priority 2005, dated 2011).

Assays:
[1] = type: physicochemical
Protocol: Amorphous samples were exposed to ambient, 53%, and 97% relative humidities at ambient temperature (about 10° C. to about 30° C.). The samples were also exposed to 75% relative humidity at 40° C. The samples were stressed for up to 60 days. Samples were taken periodically throughout the study and analyzed by x-ray powder diffraction (XRPD) for presence of crystallinity.
Relative humidity stress studies were performed to assess the stability of amorphous alvimopan and solid dispersions. Studies were performed at ambient, 53%, and 97% relative humidity at ambient temperature. Ambient relative humidity and temperature was measured as approximately 24% and 22° C. Samples were also stressed at 75% relative humidity at 40° C. Samples were analyzed by XRPD for the presence of crystallinity.

[2] = Intrinsic dissolution experiments (Woods apparatus); type: physicochemical; conditions: approximately 37° C., 75 rpm, 900 mL medium, value (SD)
Protocol: Intrinsic dissolution experiments were conducted in a VanKel VK7010 dissolution apparatus equipped with a VK750A heater/circulator. An intrinsic dissolution apparatus (Woods apparatus) and hydraulic press were used to press samples of approximately 200 mg at approximately 1000 psi for 1 minute, giving a sample surface of 0.50 cm^2. Experiments were conducted in media of pH=1.2 HCl solution and pH =4.5 phosphate solution. 900 mL of medium was used for each experiment and the medium was maintained at approximately 37° C. The apparatus was rotated at 75 rpm. The Cary 50 UV/Vis spectrophotometer was utilized to sample automatically throughout the duration of the experiments.
Samples were analyzed with a Cary 50 UV-VIS double-beam spectrophotometer, and were analyzed in 1.000-cm quartz cuvettes at a wavelength of 271 nm. The detector was zeroed with a cuvette filled with dissolution medium prior to sample analysis. Wavelength calibration was performed using holmium oxide. The photometric accuracy was verified by measuring the intensity of the light at the detector when filters of known optical density were placed in the path of the beam.

[3] = Conversion of amorphous form to crystalline dihydrate form (background statement); type: physicochemical
Source text: [[2(S)-[[4(R)-(3-hydroxyphenyl)-3(R),4-dimethyl-piperidinyl]methyl]-1-oxo-3-phenylpropyl]amino]acetic acid may exist in different crystalline forms, including hydrate forms, solvate forms and anhydrous form, and as an amorphous material. Above a relative humidity of about 15%, it exists in its crystalline dihydrate form. Below a relative humidity of about 15%, it exists in its anhydrous form. Amorphous [[2(S)-[[4(R)-(3-hydroxyphenyl)-3(R),4-dimethyl-piperidinyl]methyl]-1-oxo-3-phenylpropyl]amino]acetic acid is hygroscopic and converts to its crystalline dihydrate form when it is stressed, for example, at 54% relative humidity for 12 days or 75% relative humidity in the temperature range of about 40° C. to about 80° C. for three days. Under ambient conditions, amorphous [[2(S)-[[4(R)-(3-hydroxyphenyl)-3(R),4-dimethyl-piperidinyl]methyl]-1-oxo-3-phenylpropyl]amino]acetic acid completely converts to its crystalline dihydrate form after 66 days.

[4] = Solubility in water (statement); type: physicochemical; conditions: statement in words, dihydrate
[5] = Bioavailability (statement); type: in vivo; conditions: statement in words, dihydrate

Compound	Stability conclusion of the stress studies [1]	Intrinsic Dissolution Rate, mg/min/cm^2 (SD), pH 1.2 HCl [2]	time stressed after which amorphous form converts to its crystalline dihydrate form ([3]; 54% relative humidity) [days]	time stressed after which amorphous form converts to its crystalline dihydrate form ([3]; 75% relative humidity, about 40° C. to about 80° C.)	time after which amorphous form completely converts to its crystalline dihydrate form ([3]; ambient conditions) [days]	solubility in water ([4]; listed as Alvimopan)	solubility in water ([4]; listed as alvimopan)	solubility in water ([4]; listed as compound of formula (II))	bioavailability ([5]; listed as Alvimopan)	bioavailability ([5]; listed as alvimopan)
C[C@H]1CN(C[C@H](Cc2ccccc2)C(=O)NCC(=O)O)CC[C@@]1(C)c1cccc(O)c1 [amorphous preparation, [[2(S)-[[4(R)-(3-hydroxyphenyl)-3(R),4-dimethyl-piperidinyl]methyl]-1-oxo-3-phenylpropyl]amino]acetic acid]	stable under stress conditions except at 97% relative humidity	0.217 (0.017) mg/min/cm^2	12	three days	66					
C[C@H]1CN(C[C@H](Cc2ccccc2)C(=O)NCC(=O)O)CC[C@@]1(C)c1cccc(O)c1 [crystalline alvimopan, [[2(S)-[[4(R)-(3-hydroxyphenyl)-3(R),4-dimethyl-1-piperidinyl]methyl]-1-oxo-3-phenylpropyl]amino]acetic acid dihydrate]		0.148 (0.025) mg/min/cm^2				extremely low solubility in water	lower solubility in water than amorphous	low solubility in water except at low or high pH conditions	poor oral bioavailability	lower bioavailability than the amorphous form
